Read-outs that look alike come from different tables or passages of the source.
Tests used:
[1] = molecular target: human PRMT8 (Homo sapiens, UniProt Q9NR22); test: PRMT8 Biochemical Assay; settings: PRMT8 IC50 (uM), peptide substrate, 3H-SAM Flashplate assay
[2] = molecular target: T1, human PRMT1 (Homo sapiens, UniProt Q99873); test: PRMT1 Biochemical Assay; settings: peptide substrate, 3H-SAM Flashplate assay; read-out: PRMT1 IC50
T1 construct: GST-tagged PRMT1; made in house; host or cells: High Five insect cells (baculovirus, pFastBac1)
Procedure, shortened: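 GST-tagged PRMT1 from baculovirus-infected cells, preincubated with compounds 30 min at room temperature in 20 mM Bicine pH 7.6, 1 mM TCEP, 0.005% BSG, 0.002% Tween 20. Reaction started with ³H-SAM plus biotinylated peptide, stopped with 300 µM cold SAM.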

[3] = system: mono-methyl arginine in RKO cells; test: RKO Methylation Assay, In Cell Western (ICW); format: cell-based; settings: 72 hours
[4] = molecular target: T2, human PRMT6 (Homo sapiens, UniProt Q96LA8); test: PRMT6 Biochemical Assay
T2 construct: Flag-PRMT6-His; made in house; host or cells: HEK 293F cells (BacMam baculovirus, pFastBacMam)

[5] = peptide substrate, 3H-SAM Flashplate assay, read-out: PRMT6 IC50

T2 sequence (Q96LA8 with tags, fused parts or gaps): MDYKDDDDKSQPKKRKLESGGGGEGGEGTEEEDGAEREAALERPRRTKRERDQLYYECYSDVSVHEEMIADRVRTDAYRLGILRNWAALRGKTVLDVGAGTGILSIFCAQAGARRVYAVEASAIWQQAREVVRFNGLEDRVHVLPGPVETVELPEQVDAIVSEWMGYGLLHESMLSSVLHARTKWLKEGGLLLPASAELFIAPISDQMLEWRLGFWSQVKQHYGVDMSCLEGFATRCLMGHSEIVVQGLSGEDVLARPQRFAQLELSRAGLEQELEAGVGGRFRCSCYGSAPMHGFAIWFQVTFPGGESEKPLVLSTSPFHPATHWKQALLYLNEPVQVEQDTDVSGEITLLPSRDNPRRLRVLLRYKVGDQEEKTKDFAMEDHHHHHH
Sequence of human PRMT8 (Q9NR22 whole entry): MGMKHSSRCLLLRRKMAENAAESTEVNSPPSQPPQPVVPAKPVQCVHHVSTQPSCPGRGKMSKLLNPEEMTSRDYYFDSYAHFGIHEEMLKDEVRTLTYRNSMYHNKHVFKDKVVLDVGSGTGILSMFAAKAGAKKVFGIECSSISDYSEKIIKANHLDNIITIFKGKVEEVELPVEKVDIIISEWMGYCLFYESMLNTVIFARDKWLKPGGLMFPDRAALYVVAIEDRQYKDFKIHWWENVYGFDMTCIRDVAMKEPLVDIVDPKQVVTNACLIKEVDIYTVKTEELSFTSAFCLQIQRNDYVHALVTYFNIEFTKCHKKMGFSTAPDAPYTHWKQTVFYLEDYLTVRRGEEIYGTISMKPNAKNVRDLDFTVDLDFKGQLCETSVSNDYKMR
T1 sequence (Q99873 with tags, fused parts or gaps): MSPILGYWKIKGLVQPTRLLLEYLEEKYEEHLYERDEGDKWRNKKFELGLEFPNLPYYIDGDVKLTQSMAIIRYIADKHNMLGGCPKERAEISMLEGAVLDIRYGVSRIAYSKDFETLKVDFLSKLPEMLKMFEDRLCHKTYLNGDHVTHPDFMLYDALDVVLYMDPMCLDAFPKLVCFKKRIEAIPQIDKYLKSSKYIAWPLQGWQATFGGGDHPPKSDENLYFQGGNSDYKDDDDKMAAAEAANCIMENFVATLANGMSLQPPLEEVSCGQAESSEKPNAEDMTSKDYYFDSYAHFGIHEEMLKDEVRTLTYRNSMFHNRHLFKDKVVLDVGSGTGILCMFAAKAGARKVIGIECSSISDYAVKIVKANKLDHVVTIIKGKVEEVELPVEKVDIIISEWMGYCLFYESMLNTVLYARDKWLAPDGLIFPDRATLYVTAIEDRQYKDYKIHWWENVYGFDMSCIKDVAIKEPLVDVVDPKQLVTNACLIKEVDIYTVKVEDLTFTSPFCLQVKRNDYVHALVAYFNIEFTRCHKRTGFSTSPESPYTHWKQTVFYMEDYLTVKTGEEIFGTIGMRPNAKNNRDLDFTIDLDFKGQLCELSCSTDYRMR

| IC50 [1] [µM] | IC50 [2] [nM] | IC50 [4, 5] [µM] | Structure (SMILES) | ICW EC30 [3] [µM] | IC50 ([4]; PRMT6 IC50 (uM)) [µM] |
| --- | --- | --- | --- | --- | --- |
| 0.117 | 24.2 | 0.0199 | CNCCN(C)Cc1c[nH]nc1-c1ccc(OCCOc2cccnn2)cc1 [Compound 90] | 2.491 |  |
| 0.0235 | 9.25 | 0.0565 | CNCCN(C)Cc1ccnn1-c1ccc(COC)cc1 [Compound 44] | 0.13 |  |
| 0.0337 | 10.5 | 0.00705 | CNCCN(C)Cc1c[nH]nc1-c1ccc(OCCOc2cccc(N3CCOCC3)c2)cc1 [Compound 49] | 0.7468 |  |
| 0.0843 | 25.8 | 0.771 | CNCCN(C)Cc1c[nH]nc1-c1cc(OCCOC)cc(C(C)C)c1 [Compound 95] | 0.726 |  |
| 0.131 | 46.4 | 0.0343 | CNCCN(C)Cc1c[nH]nc1-c1ccc(OCCCS(C)(=O)=O)cc1 [Compound 128] | 13.334 |  |
| 0.269 | 45.5 | 0.0548 | CNCCN(C)Cc1c[nH]nc1-c1ccc(OCCC(O)CO)cc1 (stereo not shown) [Compound 125] | 10.45 |  |
| 0.376 | 43.9 | 1.47 | CNCCN(C)Cc1c[nH]nc1-c1cc(OC2CCOCC2)cc(C(F)(F)F)c1 [Compound 123] | 18.364 |  |
| 0.0337 | 20.5 | 0.069 | CNCCN(C)Cc1c[nH]nc1-c1ccc(OC(C)C)nc1 [Compound 83] | 0.2 |  |
| 0.0124 | 5.21 | 0.00825 | CNCCN(C)Cc1c[nH]nc1-c1ccc(N(C)CCCOc2ccc(OC)cc2)cc1 [Compound 10] | 0.1762 |  |
| 8.45 | 2030 | > 10 | CNCCN(C)Cc1ccnn1-c1cc(OCCOC)cc(C(F)(F)F)c1 [Compound 154] | >20 |  |
| 0.0526 | 6.83 | 0.00703 | CNCCN(C)Cc1c[nH]nc1-c1ccc(OCCOc2ccc(OC(F)(F)F)cc2)cc1 [Compound 140] | 0.47 |  |
| 0.02 | 7.08 | 0.00432 | CNCCN(C)Cc1c[nH]nc1-c1ccc(OCCOc2cccc(OCCC(O)CO)c2)cc1 (stereo not shown) [Compound 31] | 2.3254 |  |
| 0.0334 | 8.8 | 0.00896 | CNCCN(C)Cc1c[nH]nc1-c1ccc(N(C)CCOc2ccc(OC)cc2)cc1 [Compound 41] | 0.3514 |  |
| 0.0363 | 12.9 | 0.00431 | CNCCN(C)Cc1c[nH]nc1-c1ccc(OCCOc2cccc(C(C)C)c2)cc1 [Compound 62] | 1.378 |  |
| 0.0199 | 6.16 | 0.0169 | CCN(CCOc1ccc(OC)cc1)c1ccc(-c2n[nH]cc2CN(C)CCNC)cc1 [Compound 20] | 0.3362 |  |
| 0.026 | 9.49 | 0.00456 | CNCCN(C)Cc1c[nH]nc1-c1ccc(OCCOc2ccc(OCCN3CCOCC3)cc2)cc1 [Compound 46] | 0.2516 |  |
| 0.0124 | 5.21 | 0.00825 | CNCCN(C)Cc1c[nH]nc1-c1ccc(N(C)CCCOc2ccc(OC)cc2)cc1 [Compound 136] | 0.1762 |  |
| 0.0122 | 8.31 | 0.0295 | C=C(C)COc1c(Cl)cc(-c2n[nH]cc2CN(C)CCNC)cc1C(F)(F)F [Compound 39] | 0.439 |  |
| 0.03 | 6.43 | 0.00574 | CNCCN(C)Cc1c[nH]nc1-c1ccc(OCCOc2ccc(C(C)C)cc2)cc1 [Compound 144] | 0.6546 |  |

| IC50 [1] [µM] | IC50 [2] [nM] | IC50 [4, 5] [µM] | Structure (SMILES) | ICW EC30 [3] [µM] | IC50 ([4]; PRMT6 IC50 (uM)) [µM] |
| --- | --- | --- | --- | --- | --- |
| 0.0494 | 19.8 | 0.114 | CNCCN(C)Cc1ccnn1-c1ccc(OC(C)C)cc1 [Compound 80] | 0.411 |  |
| 0.0124 | 4.86 | 0.0131 | C=C(C)COc1c(Cl)cc(-c2n[nH]cc2CN(C)CCNC)cc1Cl [Compound 7] | 0.09154 |  |
| 0.0237 | 10.4 | 0.0427 | CC(C)Cc1ccc(-c2n[nH]cc2CN(C)CCN)cc1C(F)(F)F [Compound 48] | 3.673 |  |
| 0.0267 | 23 | 0.0235 | CNCCN(C)Cc1cnn(C)c1-c1ccc(OC2CCOCC2)cc1 [Compound 88] | 1.236 |  |
| 0.0328 | 11 | 0.0189 | CNCCN(C)Cc1c[nH]nc1-c1cc(F)c(OC2CCOCC2)c(C(F)(F)F)c1 [Compound 53] | 0.479 |  |
| 0.467 | 45.9 | 3.45 | CCN(c1ccc(-c2n[nH]cc2CN(C)CCNC)cn1)C1CCOCC1 [Compound 127] | 9.19 |  |
| 0.168 | 121 | 2.07 | CNCCN(C)Cc1n[nH]cc1-c1cc(C(=O)C(C)C)cc(C(F)(F)F)c1 [Compound 134] | >6.7 |  |
| 0.0375 | 7.32 | 0.00624 | CNCCN(C)Cc1c[nH]nc1-c1ccc(OC(COc2ccccc2)COc2ccccc2)cc1 [Compound 146] | 1.403 |  |
| 0.0133 | 5.23 | 0.00403 | CNCCN(C)Cc1c[nH]nc1-c1ccc(OCCOc2ccc(C3CCOCC3)cc2)cc1 [Compound 11] | 0.1138 |  |
| 0.0367 | 9.26 | 0.0331 | CCN(CCOc1cccc(OC)c1)c1ccc(-c2n[nH]cc2CN(C)CCNC)cc1 [Compound 45] | 1.14 |  |
| 0.0374 | 12.9 | 0.0114 | CNCCN(C)Cc1c[nH]nc1-c1ccc(OCCOc2ccccc2)cc1 [Compound 61] | 0.13 |  |
| 0.0312 | 14.9 | 2.54 | CNCCN(C)Cc1c[nH]nc1-c1ccc(N(CCCN2CCOCC2)CC(C)C)nc1 [Compound 69] | 1.337 |  |
| 0.0206 | 5.8 | 0.0037 | CNCCN(C)Cc1c[nH]nc1-c1ccc(OCCOc2ccc(CO)cc2)cc1 [Compound 16] | 0.2763 |  |
| 0.424 | 22.7 | 0.0783 | CNCCN(C)Cc1c[nH]nc1-c1ccc(OCCCOC)c(OCC2CCOCC2)c1 [Compound 87] | 6.199 |  |
| 0.0254 | 11.9 | 0.00835 | CNCCN(C)Cc1c[nH]nc1-c1ccc(N2CC3CCCC3C2)nc1 (stereo not shown) [Compound 58] | 0.4165 |  |
| 0.0371 | 14.2 | 0.0408 | CNCCN(C)Cc1c[nH]nc1-c1ccc(N2CCCCC2)nc1 [Compound 66] | 0.3931 |  |
| 0.158 | 25.5 | 0.823 | COCCOc1cc(-c2n[nH]cc2CN(C)CCN)cc(C(F)(F)F)c1 [Compound 94] | 6.823 |  |
| 0.249 | 13.9 | 0.0535 | CNCCN(C)Cc1c[nH]nc1-c1ccc(OCCCOC)c(OC2CCOCC2)c1 [Compound 64] | 4.628 |  |
| 0.203 | 36.1 | 7.12 | CNCCN(C)Cc1c[nH]nc1-c1cc(OCCOC)cc(C(C)(C)C)c1 [Compound 109] | 1.928 |  |

| Structure (SMILES) | IC50 [1] [µM] | IC50 [2] [nM] | IC50 [4, 5] [µM] | ICW EC30 [3] [µM] | IC50 ([4]; PRMT6 IC50 (uM)) [µM] |
| --- | --- | --- | --- | --- | --- |
| CNCCN(C)Cc1c[nH]nc1-c1ccc(N2CCCC2)nc1 [Compound 78] | 0.0309 | 18.3 |  | 0.7571 | 0.0395 |
| CNCCN(C)Cc1c[nH]nc1-c1cc(F)c(OCC2CCOCC2)c(C(F)(F)F)c1 [Compound 116] | 0.118 | 39.1 |  | 3.806 | 0.0184 |
| CCC(CC)Oc1ccc(-n2nccc2CN(C)CCNC)cc1 [Compound 18] | 0.0153 | 5.86 |  | 0.09146 | 0.0678 |
| CNCCN(C)Cc1c[nH]nc1-c1cc(OC)c(CC(C)C)c(OC)c1 [Compound 108] | 0.0712 | 35.7 |  | 2.967 | 0.824 |
| CNCCN(C)Cc1c[nH]nc1-c1ccc(OCCOC)nc1 [Compound 121] | 0.163 | 42.3 |  | 1.472 | 0.0886 |
| CNCCN(C)Cc1c[nH]nc1-c1ccc(CC(C)C)cc1 [Compound 37] | 0.0136 | 8.04 |  | 0.082 | 0.0169 |
| CNCCN(C)Cc1c[nH]nc1-c1cc(CC(F)(F)F)cc(OCCOC)c1 [Compound 70] | 0.0511 | 15.2 |  | 0.494 | 1.27 |
| CNCCN(C)Cc1c[nH]nc1-c1cc(OCC2CCOC2)cc(C(F)(F)F)c1 (stereo not shown) [Compound 104] | 0.226 | 33.3 |  | 1.467 | 2.9 |

— US20190077795A1, “ARGININE […] INHIBITORS AND USES THEREOF” (Epizyme, Inc., priority 2014, published 2019)
